Columns and labels:
[1] = biological target: T1, 5-hydroxytryptamine receptor 1A (Rattus norvegicus, UniProt P19327); test: Binding affinity to 5-hydroxytryptamine 1A receptor using [3H]8-OH-DPAT radioligand assay.
T1 sequence (P19327 whole entry): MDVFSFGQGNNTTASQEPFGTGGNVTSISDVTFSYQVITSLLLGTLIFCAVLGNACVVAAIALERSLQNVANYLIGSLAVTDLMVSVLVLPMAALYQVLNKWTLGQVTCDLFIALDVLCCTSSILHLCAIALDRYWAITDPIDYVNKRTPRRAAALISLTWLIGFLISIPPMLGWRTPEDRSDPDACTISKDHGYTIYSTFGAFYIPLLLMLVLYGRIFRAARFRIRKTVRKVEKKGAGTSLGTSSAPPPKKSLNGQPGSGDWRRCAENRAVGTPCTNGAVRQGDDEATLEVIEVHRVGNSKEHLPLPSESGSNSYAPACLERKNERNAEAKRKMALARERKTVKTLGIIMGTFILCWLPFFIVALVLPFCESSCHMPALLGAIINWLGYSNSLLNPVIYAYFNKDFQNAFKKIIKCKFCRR

[2] = biological target: Serotonin 2 (5-HT2) receptor (Rattus norvegicus, UniProt P30994+P08909+P14842); test: Binding affinity to 5-hydroxytryptamine 2 receptor using [3H]ketanserin radioligand assay.; assay type: protein assay

Structure (SMILES) | Ki [1] | Ki [2]
CCCN1CCC=C(c2c[nH]c3ccc(C(=O)OC)cc23)C1 | 214 nM | > 50000 nM
CCCN1CCC=C(c2c[nH]c3ccc(C#N)cc23)C1 | 303 nM | 958 nM
CCCN1CCC=C(c2c[nH]c3ccccc23)C1 | 556 nM | 146 nM
COc1ccc2[nH]cc(C3=CCCN(C)C3)c2c1 | 79 nM | 716 nM
CCCN1CCC=C(c2c[nH]c3ccc(Br)cc23)C1 | 192 nM | 139 nM
COC(=O)c1ccc2[nH]cc(C3=CCCN(C)C3)c2c1 | 102 nM | 5360 nM
CC(=O)Nc1ccc2[nH]cc(C3=CCCN(C)C3)c2c1 | 16 nM | 14536 nM
CN1CCC=C(c2c[nH]c3ccc(Br)cc23)C1 | 50 nM | 82 nM
CN1CCC=C(c2c[nH]c3ccc(C(N)=O)cc23)C1 | 3.8 nM | > 10000 nM
CCN1CCC=C(c2c[nH]c3ccc(Cl)cc23)C1 | 47 nM | 150 nM
Cc1ccc2[nH]cc(C3=CCCN(C)C3)c2c1 | 72 nM | 194 nM
CN1CCC=C(c2c[nH]c3ccc(O)cc23)C1 | 145 nM | 237 nM
CC(=O)c1ccc2[nH]cc(C3=CCCN(C)C3)c2c1 | 91 nM | 3383 nM
COc1ccc2[nH]cc(C3=CCCNC3)c2c1 | 5.7 nM | 230 nM
CN1CCC=C(c2c[nH]c3ccc(C#N)cc23)C1 | 129 nM | 1035 nM
CCN1CCC=C(c2c[nH]c3ccc(C#N)cc23)C1 | 186 nM | 1360 nM
CCCN1CCC=C(c2c[nH]c3ccc(OC)cc23)C1 | 226 nM | 1070 nM
CN1CCC=C(c2c[nH]c3ccc(F)cc23)C1 | 124 nM | 43 nM
CN1CCC=C(c2c[nH]c3ccc(Cl)cc23)C1 | 113 nM | 107 nM
CCN1CCC=C(c2c[nH]c3ccc(F)cc23)C1 | 142 nM | 67 nM
CCCN1CCC=C(c2c[nH]c3ccc(NC(C)=O)cc23)C1 | 205 nM | > 50000 nM
CCCN1CCC=C(c2c[nH]c3ccc(C(N)=O)cc23)C1 | 4.7 nM | 19152 nM
CN1CC[C@@H]2CCc3[nH]c4ccccc4c3[C@H]2C1 | 2360 nM | 325 nM
CCN1CCC=C(c2c[nH]c3ccc(Br)cc23)C1 | 24 nM | 125 nM
CCN1CCC=C(c2c[nH]c3ccc(C)cc23)C1 | 42 nM | 246 nM
CN1CCC=C(c2c[nH]c3ccccc23)C1 | 261 nM | 139 nM
CCN1CCC=C(c2c[nH]c3ccc(OC)cc23)C1 | 71 nM | 1130 nM
CCN1CCC=C(c2c[nH]c3ccccc23)C1 | 213 nM | 165 nM

Source: ChEMBL document CHEMBL1128098, “Synthesis and serotonin receptor binding properties of 5-substituted 3-(1,2,5,6-tetrahydropyridin-3-yl) indoles” (Bioorg Med Chem Lett, 1995)
